Data published in ChEMBL document CHEMBL2346650, “Cytotoxic scalarane sesterterpenes from a Korean marine sponge Psammocinia sp” (Bioorg Med Chem Lett, 2013).

Experiments:
PANC-1 = experiment: Cytotoxicity against human PANC1 cells after 72 hrs by MTT assay; type: functional, cell-based; settings: PANC-1, 72 h
[1] = Cytotoxicity against human MiaPaCa cells after 72 hrs by MTT assay; type: functional, cell-based; settings: MIA PaCa-2, 72 h
A498 = experiment: Cytotoxicity against human A498 cells after 72 hrs by MTT assay; type: functional, cell-based; settings: A498, 72 h
CV-1 = experiment: Cytotoxicity against african green monkey CV1 cells after 72 hrs by MTT assay; type: cell-based; settings: Chlorocebus aethiops, CV-1, 72 h
ACHN = experiment: Cytotoxicity against human ACHN cells after 72 hrs by MTT assay; type: functional, cell-based

Row | Structure (SMILES) | IC50 (PANC-1) | IC50 [1] | IC50 (A498) | IC50 (CV-1) | IC50 (ACHN)
1 | CC(=O)OC[C@]12CCCC(C)(C)[C@@H]1CC[C@]1(C)[C@@H]2C[C@@H](OC(C)=O)[C@]2(C)c3cocc3CC[C@@H]12 | 48 µM | 31.1 µM | > 50 µM | > 50 µM | > 50 µM
2 | CC(=O)O[C@@H]1OC=C2[C@@H](OC(C)=O)C[C@@H]3[C@](C)(CC[C@H]4[C@@]3(C)CC[C@H]3C(C)(C)CCC[C@@]34CO)[C@H]21 | 0.4 µM | 0.7 µM | 0.7 µM | 0.8 µM | 0.4 µM
3 | CO[C@H]1C[C@@H]2CC[C@@H](C)[C@@](O)(O2)C(=O)C(=O)N2CCCC[C@H]2C(=O)O[C@H]([C@H](C)C[C@@H]2CC[C@@H](OC(=O)C(C)(CO)CO)[C@H](OC)C2)CC(=O)[C@H](C)/C=C(\C)[C@@H](O)[C@@H](OC)C(=O)[C@H](C)C[C@H](C)/C=C/C=C/C=C/1C [TEMSIROLIMUS] | – | – | 34.3 µM | – | –
4 | CC1(C)CCC[C@@]2(CO)[C@H]1CC[C@@]1(C)[C@@H]3CC=C(C=O)[C@H](C=O)[C@@]3(C)CC[C@@H]12 [12-DEACETOXY-23-HYDROXYSCALARADIAL] | 34.3 µM | 31.1 µM | > 50 µM | > 50 µM | > 50 µM
5 | CC(=O)OC[C@]12CCCC(C)(C)[C@@H]1CC[C@@]1(C)[C@@H]3CC=C4C(=O)O[C@@H](O)[C@@H]4[C@@]3(C)CC[C@@H]12 | 1.3 µM | 1.2 µM | 1.3 µM | 2.1 µM | 1.3 µM
6 | CC(=O)OC[C@]12CCCC(C)(C)[C@@H]1CC[C@@]1(C)[C@@H]3C[C@H](OC(C)=O)C4=CO[C@@H](OC(C)=O)[C@@H]4[C@@]3(C)CC[C@@H]12 | 1.6 µM | 2.8 µM | 5.7 µM | 3 µM | 5.8 µM
7 | CC1(C)CCC[C@@]2(CO)[C@H]1CC[C@]1(C)[C@@H]2CC[C@]2(C)C3=C(C(=O)O[C@H]3O)C(O)C[C@@H]12 (mixture of isomers) | > 50 µM | > 50 µM | 40.7 µM | > 50 µM | > 50 µM
8 | Nc1ccn([C@@H]2O[C@H](CO)[C@@H](O)C2(F)F)c(=O)n1 [GEMCITABINE] | > 50 µM | 17.1 µM | – | 21.9 µM | –
9 | CCN(CC)CCNC(=O)c1c(C)[nH]c(/C=C2\C(=O)Nc3ccc(F)cc32)c1C [SUNITINIB] | – | – | 4.3 µM | – | 5.7 µM
10 | CC1(C)CCC[C@]2(C)[C@H]3CC[C@@]4(C)[C@@H](CC=C(C=O)[C@@H]4C=O)[C@]3(C)CC[C@@H]12 [12-DEACETOXYSCALARADIAL] | 38.8 µM | 45.9 µM | > 50 µM | 45 µM | > 50 µM
